Laboratory results reported in patent US20110218103A1, “Fluoroalkyl-substituted 2-amidobenzimidazoles” (BAYER CROPSCIENCE AG, priority 2010, published 2011).

Columns and labels:
[1] = test system: Brassica napus (BRSNS); experiment: Drought stress test on crop plants, spray application in greenhouse, visual damage rating; type: in vivo; details: mean of three results
How it was run: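 Oilseed rape was sprayed at BBCH10–13 with formulated compound at 600 l/ha water plus 0.2% wetting agent, and drought then followed for 3–5 days (14 h light at 26 °C, 10 h dark at 18 °C). After a 5–7-day recovery, damage was rated visually against unstressed controls. Efficacy is the % reduction in damage relative to untreated stressed plants, as the mean of three tests.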

[2] = test system: Zea mays (ZEAMX); experiment: as above; type: in vivo; details: 25 g/ha, mean of three results
How it was run: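 Plants in sandy loam, sprayed at BBCH10–13 (WP/WG/SC/EC, 600 l/ha, 0.2% wetting agent), then drought stress (14 h 26 °C day/10 h 18 °C night; 6–10 days monocots) and ~5–7-day recovery. Damage rated visually (%) vs. unstressed controls; efficacy = % damage reduction vs. untreated stressed control, mean of three tests.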

Structure (SMILES): NC(=O)c1cccc2[nH]c(C(F)(F)C(F)(F)F)nc12 [1-2, 2-(pentafluoroethyl)-1H-benzimidazole-4-carboxamide]
- EF (BRSNS), efficacy = percentage reduction in the intensity of damage ([1]; 25 g/ha): >5%
- EF (ZEAMX), efficacy = percentage reduction in the intensity of damage [2]: >5%

Structure (SMILES): NC(=O)c1cccc2[nH]c(C(F)(F)C(F)(F)C(F)(F)F)nc12 [1-17]
- EF (BRSNS), efficacy = percentage reduction in the intensity of damage ([1]; 50 g/ha): >5%
- EF (ZEAMX), efficacy = percentage reduction in the intensity of damage [2]: >5%
